Assay results from paper PMC10120551, “Novel Glu-based pyrazolo[3,4-d]pyrimidine analogues: design, synthesis and biological evaluation as DHFR and TS dual inhibitors” (Journal of Enzyme Inhibition and Medicinal Chemistry, 2023).

Assays:
[1] = test system: full panel of 59 cancer cells; assay: NCI one-dose screen (SRB), full panel; type: cell-based, human; details: Homo sapiens; mean over full panel of 59 cell lines; 10 µM single dose; read-out: MGI% (mean growth inhibition percentage)
Experimental: The growth percentage (G%) and cell viability of the herein target compounds 6a–l, 7a,b, and 9a–c have been screened towards a full panel of 59 cancer cells at NCI’s Developmental Therapeutics Program (NCI-DTP, MD, USA)[21]. The submitted analogues were initially examined for preliminary in vitro anticancer activity using sulforhodamine B (SRB) assay at 10 µM as a single dose to evaluate cell growth and viability according to the procedure of Drug Evaluation Branch[22]^,[23].
Different types of tumours – colon, NSCLC, leukaemia, CNS, renal, breast, ovarian, melanoma, and prostate cancers – were investigated as a full panel of 59 cell lines, and the attained results are cited in Figures S1–S17 (see Supplementary Material) where the value recorded is the growth relative to that of both the negative control and zero-time number of cells in which both growth inhibition (GI%; 0–100%) and lethality (L%; 0–100%) percentages can be identified. The growth inhibition means percentages (MGI%) for the examined target analogues towards the different treated 59 cancer cells were presented in Figure 2.
The designed analogues were submitted to NCI-Chemotherapeutic Agents Repository (MD, USA) for screening on a panel of 59 cancer cell lines. All compounds were initially examined at 10 µM concentration (Single-Dose Screen), and then the most efficient analogue 6i was screened further at 0.01–100 µM (Five-Dose Screen). The screening procedures were performed according to NCI-Drug Evaluation Branch protocol using SRB protein assay, as described previously[21]^,[66]. The experimental procedures were detailed in the Supporting Information.

[2] = test system: MOLT-4; details: MOLT-4, Leukaemia; five-dose 0.01–100 µM
[3] = test system: K-562; details: K-562, Leukaemia; five-dose 0.01–100 µM
[4] = test system: RPMI-8226; details: RPMI-8226, Leukaemia; five-dose 0.01–100 µM
[5] = test system: HCT-15; details: HCT-15, Colon cancer; five-dose 0.01–100 µM
[6] = test system: CCRF-CEM; assay: cells; details: Homo sapiens
[7] = test system: UACC-62; details: UACC-62, Melanoma; five-dose 0.01–100 µM
[8] = test system: IGROV1; details: IGROV1, Ovarian cancer; five-dose 0.01–100 µM
[9] = test system: SK-OV-3; details: SK-OV-3, Ovarian cancer; five-dose 0.01–100 µM
[10] = test system: OVCAR-8; details: OVCAR-8, Ovarian cancer; five-dose 0.01–100 µM
[11] = test system: 786-0; details: 786-0, Renal cancer; five-dose 0.01–100 µM
[12] = test system: MDA-MB-231/ATCC; details: Breast cancer, five-dose 0.01–100 µM
[13] = test system: MCF7; details: MCF7, Breast cancer; five-dose 0.01–100 µM
[14] = test system: SR; assay: cells; details: Homo sapiens
[15] = test system: RPMI-8226; assay: cells; details: Homo sapiens
[16] = test system: NCI-H23; assay: cells; details: Homo sapiens
[17] = test system: COLO 205; assay: cells; details: Homo sapiens
[18] = test system: SW-620; assay: cells; details: Homo sapiens
[19] = test system: HCT-15; assay: cells; details: Homo sapiens
[20] = test system: HT29; assay: cells; details: Homo sapiens
[21] = test system: LOX IMVI; assay: cells; details: Homo sapiens
[22] = test system: SK-MEL-2; assay: cells; details: Homo sapiens
[23] = test system: UACC-257; assay: cells; details: Homo sapiens
[24] = test system: OVCAR-3; assay: cells; details: Homo sapiens
[25] = test system: RXF 393; assay: cells; details: Homo sapiens
[26] = test system: TK-10; assay: cells; details: Homo sapiens
[27] = test system: BT-549; assay: cells; details: Homo sapiens

Question: How did the inhibition at 10 µM [1] turn out when `CCOC(=O)CC[C@H](NC(=O)c1ccc(NC(=O)Cn2cnc3c(c(C)nn3-c3ccc(Br)cc3)c2=O)cc1)C(=O)OCC` [Compound 6i] was run?
Answer: 62%

Question: What about the TGI [2] of the same molecule?
Answer: >100 µM

Question: And the TGI [3]?
Answer: >100 µM

Question: And the TGI [4]?
Answer: >100 µM

Question: What about the TGI [5] of the same molecule?
Answer: >100 µM

Question: What about the GI50 [6] of the same molecule?
Answer: 14.5 µM

Question: What about the CC50 ([6]; read-out: LC50) of the same molecule?
Answer: > 100 µM

Question: What about the TGI [7] of the same molecule?
Answer: 32.1 µM

Question: And the TGI [8]?
Answer: 74.2 µM

Question: And the TGI [9]?
Answer: 67.3 µM

Question: What about the TGI [10] of the same molecule?
Answer: >100 µM

Question: And the TGI [11]?
Answer: >100 µM

Question: And the TGI [12]?
Answer: 26.8 µM

Question: What about the TGI [13] of the same molecule?
Answer: 16.5 µM

Question: And the GI50 [14]?
Answer: 71 µM

Question: What about the CC50 ([14]; read-out: LC50) of the same molecule?
Answer: > 100 µM

Question: What about the GI50 ([15]; RPMI-8226) of the same molecule?
Answer: 22.7 µM

Question: What about the CC50 ([15]; RPMI-8226, read-out: LC50) of the same molecule?
Answer: > 100 µM

Question: What about the GI50 ([16]; NCI-H23) of the same molecule?
Answer: 7.64 µM

Question: What about the CC50 ([16]; NCI-H23, read-out: LC50) of the same molecule?
Answer: 82.1 µM

Question: What about the GI50 ([17]; COLO 205) of the same molecule?
Answer: 14 µM

Question: And the CC50 ([17]; COLO 205, read-out: LC50)?
Answer: 96 µM

Question: What about the GI50 ([18]; SW-620) of the same molecule?
Answer: 8.98 µM

Question: And the CC50 ([18]; SW-620, read-out: LC50)?
Answer: > 100 µM

Question: And the GI50 ([19]; HCT-15)?
Answer: 26 µM

Question: And the CC50 ([19]; HCT-15, read-out: LC50)?
Answer: > 100 µM

Question: And the GI50 ([20]; HT-29)?
Answer: 18.4 µM

Question: What about the CC50 ([20]; HT-29, read-out: LC50) of the same molecule?
Answer: > 100 µM

Question: What about the GI50 [21] of the same molecule?
Answer: 5.3 µM

Question: What about the CC50 ([21]; read-out: LC50) of the same molecule?
Answer: 58.4 µM

Question: And the GI50 ([22]; SK-MEL-2)?
Answer: 27.6 µM

Question: And the CC50 ([22]; SK-MEL-2, read-out: LC50)?
Answer: > 100 µM

Question: What about the GI50 ([23]; UACC-257) of the same molecule?
Answer: 31.5 µM

Question: What about the CC50 ([23]; UACC-257, read-out: LC50) of the same molecule?
Answer: > 100 µM

Question: What about the GI50 ([24]; OVCAR-3) of the same molecule?
Answer: 11.7 µM

Question: What about the CC50 ([24]; OVCAR-3, read-out: LC50) of the same molecule?
Answer: > 100 µM

Question: What about the GI50 ([25]; RXF 393) of the same molecule?
Answer: 15.9 µM

Question: What about the CC50 ([25]; RXF 393, read-out: LC50) of the same molecule?
Answer: > 100 µM

Question: What about the GI50 ([26]; TK-10) of the same molecule?
Answer: 31.3 µM

Question: And the CC50 ([26]; TK-10, read-out: LC50)?
Answer: > 100 µM

Question: What about the GI50 ([27]; BT-549) of the same molecule?
Answer: 4.54 µM

Question: And the CC50 ([27]; BT-549, read-out: LC50)?
Answer: > 100 µM
